# Legend:
# [1] = target: T1, Solute carrier family 22 member 12 (Homo sapiens, UniProt Q96S37); experiment: Inhibition of human URAT1 expressed in HEK293 cells assessed as [14C]uric acid uptake after 12 mins by scintillation counter; assay type: cell-based
# T1 sequence (Q96S37 whole entry): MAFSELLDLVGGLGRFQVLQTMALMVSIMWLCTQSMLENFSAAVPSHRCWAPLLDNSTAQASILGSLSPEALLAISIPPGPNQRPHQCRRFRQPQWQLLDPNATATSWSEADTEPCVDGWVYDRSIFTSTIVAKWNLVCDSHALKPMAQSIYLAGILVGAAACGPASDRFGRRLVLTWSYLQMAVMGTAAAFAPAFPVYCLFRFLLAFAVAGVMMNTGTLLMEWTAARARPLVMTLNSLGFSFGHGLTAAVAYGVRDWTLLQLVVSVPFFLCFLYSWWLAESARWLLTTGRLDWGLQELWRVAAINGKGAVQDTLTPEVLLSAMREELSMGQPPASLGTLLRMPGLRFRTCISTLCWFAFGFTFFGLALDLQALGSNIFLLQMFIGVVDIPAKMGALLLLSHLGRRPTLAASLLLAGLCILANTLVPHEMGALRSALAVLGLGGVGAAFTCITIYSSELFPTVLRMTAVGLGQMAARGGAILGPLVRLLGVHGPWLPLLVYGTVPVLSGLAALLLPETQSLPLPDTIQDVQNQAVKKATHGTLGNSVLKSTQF
# [2] = Cmax in Sprague-Dawley rat at 3 mg/kg, iv by LC-MS/MS analysis; assay type: ADME, organism-based; parameters: dose 3 mg/kg, route intravenous; conditions: in vivo
# [3] = AUC (0 to t) in cynomolgus monkey at 10 mg/kg, po by LC-MS/MS analysis; assay type: ADME, organism-based, Macaca fascicularis; conditions: in vivo
# [4] = Apparent volume of distribution in Sprague-Dawley rat at 3 mg/kg, po by LC-MS/MS analysis; assay type: ADME, organism-based; conditions: in vivo, read-out: Vz/F
# [5] = tested on: Rattus norvegicus; experiment: Apparent volume of distribution in Sprague-Dawley rat at 3 mg/kg, iv by LC-MS/MS analysis; assay type: ADME, organism-based; conditions: in vivo
# [6] = Mean residence time in beagle dog at 5 mg/kg, po by LC-MS/MS analysis; assay type: ADME, organism-based, Canis lupus familiaris; conditions: in vivo
# [7] = Mean residence time in beagle dog at 1 mg/kg, iv by LC-MS/MS analysis; assay type: ADME, organism-based, Canis lupus familiaris; conditions: in vivo
# [8] = tested on: Cynomolgus monkey; experiment: Decrease in uric acid level in cynomolgus monkey serum administered as single oral dose measured after 24 hrs; assay type: functional, organism-based; conditions: Macaca fascicularis
# [9] = AUC (0 to t) in Sprague-Dawley rat at 3 mg/kg, iv by LC-MS/MS analysis; assay type: ADME, organism-based; conditions: in vivo
# [10] = Mean residence time in Sprague-Dawley rat at 3 mg/kg, po by LC-MS/MS analysis; assay type: ADME, organism-based; conditions: in vivo
# [11] = Bioavailability in Sprague-Dawley rat at 3 mg/kg, iv by LC-MS/MS analysis; assay type: ADME, organism-based; conditions: in vivo
# [12] = Plasma protein binding in human; assay type: ADME, cell-free; conditions: read-out: PPB (converted)
# [13] = Half life in human liver microsomes; assay type: ADME
# [14] = Half life in rat liver microsomes; assay type: ADME
# [15] = tested on: Canis familiaris; experiment: AUC (0 to t) in beagle dog at 5 mg/kg, po by LC-MS/MS analysis; assay type: ADME, organism-based, Canis lupus familiaris; conditions: in vivo
# [16] = tested on: Canis familiaris; experiment: Half life in beagle dog at 1 mg/kg, iv by LC-MS/MS analysis; assay type: ADME, organism-based, Canis lupus familiaris; conditions: in vivo
# [17] = tested on: Canis familiaris; experiment: AUC (0 to t) in beagle dog at 1 mg/kg, iv by LC-MS/MS analysis; assay type: ADME, organism-based, Canis lupus familiaris; conditions: in vivo
# [18] = Clearance in cynomolgus monkey at 10 mg/kg, po by LC-MS/MS analysis; assay type: ADME, organism-based, Macaca fascicularis; conditions: in vivo
# [19] = Intrinsic clearance in rat liver microsomes; assay type: ADME; conditions: read-out: CLH
# [20] = Half life in cynomolgus monkey at 10 mg/kg, po by LC-MS/MS analysis; assay type: ADME, organism-based, Macaca fascicularis; conditions: in vivo
# [21] = Mean residence time in cynomolgus monkey at 10 mg/kg, po by LC-MS/MS analysis; assay type: ADME, organism-based, Macaca fascicularis; conditions: in vivo
# [22] = Tmax in Sprague-Dawley rat at 3 mg/kg, po by LC-MS/MS analysis; assay type: ADME, organism-based; conditions: in vivo
# [23] = Intrinsic clearance in human liver microsomes; assay type: ADME; conditions: read-out: CLH
# [24] = Half life in Sprague-Dawley rat at 3 mg/kg, po by LC-MS/MS analysis; assay type: ADME, organism-based; conditions: in vivo
# [25] = Tmax in cynomolgus monkey at 10 mg/kg, po by LC-MS/MS analysis; assay type: ADME, organism-based, Macaca fascicularis; conditions: in vivo
# [26] = Cmax in cynomolgus monkey at 10 mg/kg, po by LC-MS/MS analysis; assay type: ADME, organism-based, Macaca fascicularis; parameters: dose 10 mg/kg, route oral; conditions: in vivo
# [27] = Mean residence time in Sprague-Dawley rat at 3 mg/kg, iv by LC-MS/MS analysis; assay type: ADME, organism-based; conditions: in vivo
# [28] = Toxicity in Sprague-Dawley rat administered once daily for 1 week; assay type: organism-based; conditions: in vivo
# [29] = tested on: Canis familiaris; experiment: Apparent volume of distribution in beagle dog at 5 mg/kg, po by LC-MS/MS analysis; assay type: ADME, organism-based, Canis lupus familiaris; conditions: in vivo
# [30] = Cmax in beagle dog at 1 mg/kg, iv by LC-MS/MS analysis; assay type: ADME, organism-based, Canis lupus familiaris; parameters: dose 1 mg/kg, route intravenous; conditions: in vivo
# [31] = Half life in Sprague-Dawley rat at 3 mg/kg, iv by LC-MS/MS analysis; assay type: ADME, organism-based; conditions: in vivo
# [32] = Apparent volume of distribution in cynomolgus monkey at 10 mg/kg, po by LC-MS/MS analysis; assay type: ADME, organism-based, Macaca fascicularis; conditions: in vivo, read-out: Vz/F
# [33] = tested on: Rattus norvegicus; experiment: Toxicity in Sprague-Dawley rat assessed as no adverse effect at 100 mg/kg once daily for 1 week; assay type: organism-based; conditions: in vivo, 168 h
# [34] = Cmax in beagle dog at 5 mg/kg, po by LC-MS/MS analysis; assay type: ADME, organism-based, Canis lupus familiaris; parameters: dose 5 mg/kg, route oral; conditions: in vivo
# [35] = Cmax in Sprague-Dawley rat at 3 mg/kg, po by LC-MS/MS analysis; assay type: ADME, organism-based; parameters: dose 3 mg/kg, route oral; conditions: in vivo
# [36] = tested on: Canis familiaris; experiment: Apparent volume of distribution in beagle dog at 1 mg/kg, iv by LC-MS/MS analysis; assay type: ADME, organism-based, Canis lupus familiaris; conditions: in vivo
# [37] = Tmax in beagle dog at 5 mg/kg, po by LC-MS/MS analysis; assay type: ADME, organism-based, Canis lupus familiaris; conditions: in vivo
# [38] = Intrinsic clearance in monkey liver microsomes; assay type: ADME, Macaca mulatta; conditions: rhesus monkey, read-out: CLH
# [39] = tested on: Canis familiaris; experiment: Half life in beagle dog at 5 mg/kg, po by LC-MS/MS analysis; assay type: ADME, organism-based, Canis lupus familiaris; conditions: in vivo
# [40] = Clearance in Sprague-Dawley rat at 3 mg/kg, iv by LC-MS/MS analysis; assay type: ADME, organism-based; conditions: in vivo
# [41] = Clearance in Sprague-Dawley rat at 3 mg/kg, po by LC-MS/MS analysis; assay type: ADME, organism-based; conditions: in vivo
# [42] = Half life in monkey liver microsomes; assay type: ADME, Macaca mulatta; conditions: rhesus monkey
# [43] = Bioavailability in beagle dog at 1 mg/kg, iv by LC-MS/MS analysis; assay type: ADME, organism-based, Canis lupus familiaris; conditions: in vivo
# [44] = AUC (0 to t) in Sprague-Dawley rat at 3 mg/kg, po by LC-MS/MS analysis; assay type: ADME, organism-based; conditions: in vivo
compound,measurement,setting,value
O=C(O)C1(Sc2ccnc3ccc(O)cc23)CCC1,IC50,[1],> 10000 nM
O=C(O)C1(Oc2ncnc3ccccc23)CCC1,IC50,[1],> 10000 nM
O=C(O)C1(Sc2ccnc3ccc(Br)cc23)CCC1 [SHR-4640],Cmax,[2],99700 ng/mL
same,AUC(0-t),[3],132000 ng·h/mL
same,Vd/F,[4],0.14 L/kg
same,Vz/F,[5],0.12 L/kg
same,MRT,[6],5 h
same,MRT,[7],3.2 h
same,inhibition,[8],Dose-dependent effect
same,AUC(0-t),[9],193000 ng·h/mL
same,MRT,[10],6.8 h
same,bioavailability,[11],74.8%
same,fraction unbound,[12],0.013
same,half-life,[13],13.6 h
same,half-life,[14],3.28 h
same,AUCt,[15],18600 ng·h/mL
same,t1/2,[16],4.7 h
same,AUCt,[17],4400 ng·h/mL
same,CL/F,[18],1.3 mL/min/kg
same,microsomal CLint,[19],4.4 µL/min/mg
same,half-life,[20],7.3 h
same,MRT,[21],6.3 h
same,Tmax,[22],1.2 h
same,microsomal CLint,[23],1.1 µL/min/mg
same,half-life,[24],4.4 h
same,Tmax,[25],0.5 h
same,Cmax,[26],46900 ng/mL
same,MRT,[27],6 h
same,MTD at 168 h,[28],300 mg/kg
same,Vz/F,[29],2.1 L/kg
same,Cmax,[30],4700 ng/mL
same,half-life,[31],4.9 h
same,Vd/F,[32],0.8 L/kg
same,Activity,[33],Non-toxic
same,Cmax,[34],7700 ng/mL
same,IC50,[1],33.7 nM
same,Cmax,[35],20500 ng/mL
same,Vz/F,[36],1.6 L/kg
same,Tmax,[37],0.5 h
same,microsomal CLint,[38],2.6 µL/min/mg
same,t1/2,[39],5.2 h
same,clearance,[40],0.29 mL/min/kg
same,CL/F,[41],0.39 mL/min/kg
same,half-life,[42],5.8 h
same,bioavailability,[43],86.1%
same,AUC(0-t),[44],146000 ng·h/mL
Nc1ccc2nccc(SC3(C(=O)O)CCC3)c2c1,IC50,[1],1790 nM
O=C(O)C1(Sc2ncnc3ccccc23)CCC1,IC50,[1],> 10000 nM
O=C(Nc1ccc2nccc(SC3(C(=O)O)CCC3)c2c1)C1CC1,IC50,[1],> 10000 nM
O=C(O)C1(Sc2ccnc3ccccc23)CCC1,Vd/F,[4],0.69 L/kg
same,MRT,[10],3.2 h
same,fraction unbound,[12],0.002
same,half-life,[13],2.02 h
same,half-life,[14],6.88 h
same,microsomal CLint,[19],2.1 µL/min/mg
same,Tmax,[22],0.5 h
same,microsomal CLint,[23],7.2 µL/min/mg
same,half-life,[24],2.8 h
same,IC50,[1],448 nM
same,Cmax,[35],8800 ng/mL
same,microsomal CLint,[38],3 µL/min/mg
same,CL/F,[41],2.5 mL/min/kg
same,half-life,[42],4.82 h
same,AUC(0-t),[44],20700 ng·h/mL
O=C(O)C1(Sc2ccnc3ccc(-c4ccc(C(F)(F)F)cc4)cc23)CCC1,IC50,[1],1750 nM
O=C(O)C1(Sc2ccnc3ccc(C(F)(F)F)cc23)CCC1,Vd/F,[4],1.2 L/kg
same,fraction unbound,[12],0.001
same,half-life,[13],4.62 h
same,half-life,[14],3.08 h
same,microsomal CLint,[19],4.7 µL/min/mg
same,Tmax,[22],1 h
same,microsomal CLint,[23],3.3 µL/min/mg
same,half-life,[24],8.8 h
same,Cmax,[35],2700 ng/mL
same,microsomal CLint,[38],4.9 µL/min/mg
same,CL/F,[41],2 mL/min/kg
same,half-life,[42],3.15 h
same,AUC(0-t),[44],38200 ng·h/mL
O=C(O)C1(Sc2ccnc3ccc(OCCO)cc23)CCC1,IC50,[1],1890 nM
O=C(O)C1(Sc2ccnc3ccc(Br)cc23)CC1,IC50,[1],352 nM
O=C(O)C1(Sc2ccnc3ccc(-c4cccc(F)c4)cc23)CCC1,IC50,[1],1190 nM
O=C(O)C1(Sc2nccc3ncccc23)CCC1,IC50,[1],> 10000 nM
O=C(O)C1(Sc2ccnc3cccnc23)CCC1,IC50,[1],> 10000 nM
O=C(O)C1(Sc2ccnc3ccc(Br)cc23)CCCC1,IC50,[1],324 nM
N#CCCc1ccc2nccc(SC3(C(=O)O)CCC3)c2c1,IC50,[1],2760 nM
O=C(O)C1(Sc2ccnc3ccncc23)CCC1,IC50,[1],1930 nM
CC(=O)Nc1ccc2nccc(SC3(C(=O)O)CCC3)c2c1,IC50,[1],> 10000 nM
O=C1COc2cccc(SC3(C(=O)O)CCC3)c2N1,IC50,[1],> 10000 nM
O=C(O)C1(Sc2ccnc3ccc(-c4ccccc4F)cc23)CCC1,IC50,[1],333 nM
CNC(=O)COc1ccc2nccc(SC3(C(=O)O)CCC3)c2c1,IC50,[1],> 10000 nM
O=C(O)C1(Sc2ccnc3ccc(CO)cc23)CCC1,IC50,[1],1260 nM

# Reference: ChEMBL document CHEMBL3745711, “Discovery of potent and orally bioavailable inhibitors of Human Uric Acid Transporter 1 (hURAT1) and binding mode prediction using homology model” (Bioorg Med Chem Lett, 2016)
